Consider one compound from patent US20250304563A1, “ACTIVATORS OF EFFECTOR T CELLS” (Orum Therapeutics, Inc., priority 2022, published 2025).

Molecules are shown by their SMILES.

The target of assay [1] is Cbl-b (36-427 aa truncated form, N-terminus Avi-tag) (Homo sapiens (Human), UniProt Q13191). Kind of assay: Cbl-b binding: TR-FRET displacement of BODIPY-FL probe. In short, it runs like this: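 IC50 from loss of terbium–BODIPY-FL TR-FRET signal as compounds compete off a fluorescent Cbl-b inhibitor probe (1 uM) for 1 h at RT. Protein: N-Avi-tagged human Cbl-b 36-427 on streptavidin-terbium, 20 mM HEPES pH 7.5 buffer.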
Chain of Cbl-b (36-427 aa truncated form, N-terminus Avi-tag) (Q13191 36-427): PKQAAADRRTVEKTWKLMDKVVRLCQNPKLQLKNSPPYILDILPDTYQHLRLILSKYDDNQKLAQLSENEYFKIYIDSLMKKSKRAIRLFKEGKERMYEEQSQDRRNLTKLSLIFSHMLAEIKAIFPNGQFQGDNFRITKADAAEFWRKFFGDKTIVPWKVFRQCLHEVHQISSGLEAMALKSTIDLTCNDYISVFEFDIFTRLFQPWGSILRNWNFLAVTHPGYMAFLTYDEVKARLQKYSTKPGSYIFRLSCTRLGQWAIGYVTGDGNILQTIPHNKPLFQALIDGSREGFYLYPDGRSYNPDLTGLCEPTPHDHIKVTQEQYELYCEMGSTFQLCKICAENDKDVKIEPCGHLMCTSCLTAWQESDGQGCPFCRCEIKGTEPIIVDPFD
Background: In TR-FRET formats the signal depends on donor and acceptor labels being close together.

The subject of assay [2] is Human primary T cells. The assay can be described thus: T cell activation: secreted IL-2. The settings on record: 48 hours, fold over background normalized to Compound 141A. Format: cell-based. In short, it runs like this:
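IL-2 values are fold over anti-CD3/CD28 background, normalized to a reference compound and sorted into ranges. They come from supernatants of human pan-T cells captured on anti-CD3-coated plates and exposed 48 h, 37° C., to duplicate compound dilutions, measured with cytometric beads.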

Assay [3] deals with Human primary T cells. Kind of assay: T cell activation: secreted IFN-y. The settings on record: 48 hours, fold over background normalized to Compound 141A. In kind it is cell-based. Summed up:
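Values are binned ranges (A–D) of fold increase over anti-CD3/CD28 background, normalized to a reference compound, for IFN-γ in supernatants measured by bead array. Pan-T cells from donor PBMC or LeukoPaks were stimulated on anti-CD3-coated wells (10 μg/mL coating) in serum-free medium with compound for 48 h at 37 °C.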

In assay [4] the test system is Human primary T cells. Kind of assay: T cell activation: CD69 surface expression by flow cytometry. The following applies: fold over anti-CD3 stimulated background normalized to Compound 141A. Format: cell-based. Summed up:
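Read-out is flow-cytometric CD69 surface staining, expressed as fold increase over anti-CD3-stimulated background and normalized to Compound 141A. Human pan T cells from PBMC or LeukoPaks were plated on OKT3-coated wells in serum-free XVivo-15. Compound dilutions were added for 48 h at 37° C, 5% CO2.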
For orientation: Flow cytometry measures light scatter and fluorescence of single cells or particles in a stream.

In assay [5] the test system is human peripheral blood pan-T cells. Kind of assay: T cell activation by small molecule inhibitors of Cbl-b (biomarker flow cytometry). In kind it is cell-based. The settings on record: 10 μM, 48 hours. The method, then:
Cryopreserved human peripheral blood pan-T cells (StemCell, 70024) were defrosted and resuspended in Immunocult-XF T cell Expansion Medium (StemCell, 10981). Cells were plated at 8×10^5 cells per well in 24 well plates, in presence or absence of pre-coated anti-CD3 (OKT3) antibody (ThermoFisher, 16-0037-85). Pre-coating of plates was done by diluting anti-CD3 antibody to 10 μg/mL in PBS and adding 1 ml to each well. Plates were incubated at 4° C. overnight or at 37° C. for 2 hours and washed once with PBS before use. Dilution of each small molecule cbl-b inhibitor was added. Untreated cell was used as a control. Plates were incubated for 48 hours at 37° C. with 5% CO2. T cells were fixed and permeabilized with Intracellular Fixation & Permeabilization Buffer Set (ThermoFisher, 88-8824), and continuously stained with one of PE-conjugated antibody listed in Table 10. Stained T cells were then analyzed with by flow cytometry (ThermoFisher Attune NxT). The percent of positive cells of each treated group was normalized with untreated cell and sorted into bins as follows: fold over background values from 10 to 14.9: range “A;” values from 5.0 to 9.9: range “B;” values from 2.0 to 4.9: range “C;” and values from 0.1 to 1.9: range “D.” Only for Notch1, geometric mean was used.

[6] abbreviates: +CD3 (pre-coated anti-CD3 OKT3).

In assay [1], `CCNc1cc(C2(Cc3nncn3C)COC2)cc(N2Cc3c(SC)cc(CN4CCC[C@H](C)C4)cc3C2=O)n1` [Compound 126, 2-[6-(ethylamino)-4-{3-[(4-methyl-1,2,4-triazol-3-yl)methyl]oxetan-3-yl}pyridin-2-yl]-6-{[(3S)-3-methylpiperidin-1-yl]methyl}-4-(methylsulfanyl)-3H-isoindol-1-one] displayed an IC50 of 1 to 5 nM. The “IL-2 1 nM” value in the assay on Human primary T cells [2] (1 nM compound) is “C (values between 0.10 and 0.30: range “C”)”. In addition, the “IL-2 10 nM” value in the assay with Human primary T cells [2] (10 nM compound) is “B (values between 0.31 and 0.79: range “B”)”. The “IL-2 100 nM” value with Human primary T cells [2] (100 nM compound) was “A (between 0.80 and 1.40: range “A”)”. For the same compound, the “IFN-y 1 nM” value with Human primary T cells [3] (1 nM compound) was “B (values between 0.31 and 1.00: range “B;”)”. Moreover, the “IFN-y 10 nM” value in the assay with Human primary T cells [3] (10 nM compound) was “B (values between 0.31 and 1.00: range “B;”)”. In addition, the “IFN-y 100 nM” value in the assay with Human primary T cells [3] (100 nM compound) is “A (fold over background between 1.10 and 2.00: range “A”)”. In addition, the “CD69 10 nM” value with Human primary T cells [4] (10 nM compound) is “A (values between 0.81 and 1.10: range “A”)”. For the same compound, the “CD69 100 nM” value with Human primary T cells [4] (100 nM compound) was “A (values between 0.81 and 1.10: range “A”)”. Besides, in assay [5] (setting [6]), the “Notch 1, geometric mean normalized with untreated cell (fold over background)” value is listed as “C (values from 2.0 to 4.9: range “C;”)”; the “pCD3zeta, percent of positive cells normalized with untreated cell (fold over background)” value is “D (values from 0.1 to 1.9: range “D.”)”; the “pHS1, percent of positive cells normalized with untreated cell (fold over background)” value is recorded as “C (values from 2.0 to 4.9: range “C;”)”; the “pLYN, percent of positive cells normalized with untreated cell (fold over background)” value is recorded as “D (values from 0.1 to 1.9: range “D.”)”. Further, in assay [5] (setting [6]), the “pPLCg1, percent of positive cells normalized with untreated cell (fold over background)” value is “C (values from 2.0 to 4.9: range “C;”)”; the “pPLCg2, percent of positive cells normalized with untreated cell (fold over background)” value was “D (values from 0.1 to 1.9: range “D.”)”; the “pZAP70, percent of positive cells normalized with untreated cell (fold over background)” value was “C (values from 2.0 to 4.9: range “C;”)”. Also, in assay [5] (−CD3), the “Notch 1, geometric mean normalized with untreated cell (fold over background)” value is “D (values from 0.1 to 1.9: range “D.”)”; the “pCD3zeta, percent of positive cells normalized with untreated cell (fold over background)” value is “C (values from 2.0 to 4.9: range “C;”)”; the “pHS1, percent of positive cells normalized with untreated cell (fold over background)” value is on record as “B (values from 5.0 to 9.9: range “B;”)”; the “pLYN, percent of positive cells normalized with untreated cell (fold over background)” value is “C (values from 2.0 to 4.9: range “C;”)”. For the same compound, in assay [5] (−CD3), the “pPLCg1, percent of positive cells normalized with untreated cell (fold over background)” value is reported as “C (values from 2.0 to 4.9: range “C;”)”; the “pPLCg2, percent of positive cells normalized with untreated cell (fold over background)” value was “B (values from 5.0 to 9.9: range “B;”)”; the “pZAP70, percent of positive cells normalized with untreated cell (fold over background)” value is recorded as “C (values from 2.0 to 4.9: range “C;”)”.

A word on the IC50: it is the concentration that gives 50% inhibition.
